Data reported in the NIST ThermoML archive (doi:10.1016/j.jct.2017.08.004).
Numbers after ± are expanded uncertainties.

What was measured:
[1] = Molar enthalpy of transition or fusion; conditions: Crystal; DSC
[2] = for molar entropy: 101.33 kPa

OC[C@@H](O)[C@H](O)[C@@H](O)CO [xylitol]
Conditions | Molar enthalpy of transition or fusion [kcal/mol]
[1] | 9.44 ± 0.598

[2]
Conditions | molar entropy [J/K/mol]
1 K, Crystal, relaxation calorimetry | 0.0003173 ± 4.7e-05
2 K, Crystal, relaxation calorimetry | 0.002178 ± 0.00021
3 K, Crystal, relaxation calorimetry | 0.007217 ± 0.00068
4 K, Crystal, relaxation calorimetry | 0.01724 ± 0.0016
5 K, Crystal, relaxation calorimetry | 0.03429 ± 0.0032
6 K, Crystal, relaxation calorimetry | 0.06064 ± 0.0056
7 K, Crystal, relaxation calorimetry | 0.09884 ± 0.0091
8 K, Crystal, relaxation calorimetry | 0.1517 ± 0.014
9 K, Crystal, relaxation calorimetry | 0.2221 ± 0.02
10 K, Crystal, relaxation calorimetry | 0.3121 ± 0.029
15 K, Crystal, relaxation calorimetry | 1.099 ± 0.1
20 K, Crystal, relaxation calorimetry | 2.464 ± 0.23
25 K, Crystal, relaxation calorimetry | 4.334 ± 0.4
30 K, Crystal, relaxation calorimetry | 6.612 ± 0.61
35 K, Crystal, relaxation calorimetry | 9.217 ± 0.85
40 K, Crystal, relaxation calorimetry | 12.09 ± 1.1
45 K, Crystal, relaxation calorimetry | 15.19 ± 1.4
50 K, Crystal, relaxation calorimetry | 18.47 ± 1.7
55 K, Crystal, relaxation calorimetry | 21.88 ± 2
60 K, Crystal, relaxation calorimetry | 25.4 ± 2.3
65 K, Crystal, relaxation calorimetry | 29.01 ± 2.7
70 K, Crystal, relaxation calorimetry | 32.7 ± 3
75 K, Crystal, relaxation calorimetry | 36.44 ± 3.3
80 K, Crystal, relaxation calorimetry | 40.21 ± 3.7
85 K, Crystal, relaxation calorimetry | 44.01 ± 4
90 K, Crystal, relaxation calorimetry | 47.82 ± 4.4
95 K, Crystal, relaxation calorimetry | 51.65 ± 4.7
100 K, Crystal, relaxation calorimetry | 55.48 ± 5.1
110 K, Crystal, relaxation calorimetry | 63.13 ± 5.8
120 K, Crystal, relaxation calorimetry | 70.74 ± 6.5
130 K, Crystal, relaxation calorimetry | 78.31 ± 7.2
140 K, Crystal, relaxation calorimetry | 85.82 ± 7.9
150 K, Crystal, relaxation calorimetry | 93.27 ± 8.6
160 K, Crystal, relaxation calorimetry | 100.65 ± 9.2
170 K, Crystal, relaxation calorimetry | 107.96 ± 9.9
180 K, Crystal, relaxation calorimetry | 115.21 ± 11
190 K, Crystal, relaxation calorimetry | 122.4 ± 11
200 K, Crystal, relaxation calorimetry | 129.55 ± 12
210 K, Crystal, relaxation calorimetry | 136.64 ± 13
220 K, Crystal, relaxation calorimetry | 143.7 ± 13
230 K, Crystal, relaxation calorimetry | 150.72 ± 14
240 K, Crystal, relaxation calorimetry | 157.72 ± 14
250 K, Crystal, relaxation calorimetry | 164.69 ± 15
260 K, Crystal, relaxation calorimetry | 171.65 ± 16
270 K, Crystal, relaxation calorimetry | 178.59 ± 16
273.15 K, Crystal, relaxation calorimetry | 180.78 ± 17
280 K, Crystal, relaxation calorimetry | 185.53 ± 17
290 K, Crystal, relaxation calorimetry | 192.47 ± 18
298.15 K, Crystal, relaxation calorimetry | 198.13 ± 18
300 K, Crystal, relaxation calorimetry | 199.41 ± 18
305 K, Crystal, Small sample (50 mg) DSC | 202.93 ± 19
310 K, Crystal, Small sample (50 mg) DSC | 206.47 ± 19
315 K, Crystal, Small sample (50 mg) DSC | 210.02 ± 19
320 K, Crystal, Small sample (50 mg) DSC | 213.58 ± 20
325 K, Crystal, Small sample (50 mg) DSC | 217.15 ± 20
330 K, Crystal, Small sample (50 mg) DSC | 220.72 ± 20
335 K, Crystal, Small sample (50 mg) DSC | 224.31 ± 21
340 K, Crystal, Small sample (50 mg) DSC | 227.9 ± 21
345 K, Crystal, Small sample (50 mg) DSC | 231.52 ± 21
350 K, Crystal, Small sample (50 mg) DSC | 235.17 ± 22
355 K, Crystal, Small sample (50 mg) DSC | 238.92 ± 22
360 K, Crystal, Small sample (50 mg) DSC | 243.05 ± 22
380 K, Liquid, Small sample (50 mg) DSC | 367.99 ± 34
385 K, Liquid, Small sample (50 mg) DSC | 373.77 ± 35
390 K, Liquid, Small sample (50 mg) DSC | 379.42 ± 35
395 K, Liquid, Small sample (50 mg) DSC | 385 ± 36
400 K, Liquid, Small sample (50 mg) DSC | 390.52 ± 36
405 K, Liquid, Small sample (50 mg) DSC | 395.99 ± 37
410 K, Liquid, Small sample (50 mg) DSC | 401.41 ± 37
415 K, Liquid, Small sample (50 mg) DSC | 406.78 ± 38
420 K, Liquid, Small sample (50 mg) DSC | 412.1 ± 38
425 K, Liquid, Small sample (50 mg) DSC | 417.37 ± 39
430 K, Liquid, Small sample (50 mg) DSC | 422.59 ± 39
435 K, Liquid, Small sample (50 mg) DSC | 427.75 ± 40

Conditions | Normal melting temperature [°C]
[2], Crystal, DTA | 93.0 ± 0.61
